The NIST ThermoML archive (doi:10.1016/j.tca.2012.11.015)
Numbers after ± are expanded uncertainties.

Test: molar heat capacity at constant pressure
Conditions: 101.33 kPa, Crystal, Small sample (50 mg) DSC

[F-].[F-].[F-].[F-].[Li+].[Lu+3] [lithium lutetium fluoride]
Conditions	molar heat capacity at constant pressure [J/K/mol]
319.1 K	130.85 ± 2.6
320.6 K	131.02 ± 2.6
322.3 K	131.32 ± 2.6
324.2 K	132.25 ± 2.6
326.3 K	132.67 ± 2.6
328.5 K	133 ± 2.7
330.9 K	133.72 ± 2.7
333.4 K	133.98 ± 2.7
336 K	134.52 ± 2.7
338.8 K	134.79 ± 2.7
341.6 K	135.17 ± 2.7
344.6 K	135.52 ± 2.7
347.6 K	135.82 ± 2.7
350.6 K	136.23 ± 2.7
353.7 K	136.42 ± 2.7
356.9 K	136.86 ± 2.7
360.1 K	137.1 ± 2.7
363.4 K	137.35 ± 2.8
366.6 K	137.71 ± 2.8
369.9 K	138.05 ± 2.8
373.2 K	138.18 ± 2.8
376.4 K	138.33 ± 2.8
379.7 K	138.6 ± 2.8
382.9 K	138.79 ± 2.8
386.1 K	139.07 ± 2.8
389.3 K	139.36 ± 2.8
392.5 K	139.51 ± 2.8
395.7 K	139.75 ± 2.8
398.8 K	140.02 ± 2.8
401.9 K	140.28 ± 2.8
405 K	140.35 ± 2.8
408.1 K	140.55 ± 2.8
411.1 K	140.85 ± 2.8
414.1 K	141 ± 2.8
417.1 K	141.21 ± 2.8
420.1 K	141.55 ± 2.8
423.1 K	141.68 ± 2.8
426 K	141.88 ± 2.8
428.9 K	142.09 ± 2.8
431.8 K	142.34 ± 2.9
434.6 K	142.51 ± 2.9
437.4 K	142.74 ± 2.9
440.3 K	142.93 ± 2.9
443.1 K	143.15 ± 2.9
445.8 K	143.38 ± 2.9
448.6 K	143.52 ± 2.9
451.3 K	143.71 ± 2.9
454.1 K	144.09 ± 2.9
456.8 K	144.11 ± 2.9
459.5 K	144.4 ± 2.9
462.2 K	144.65 ± 2.9
464.9 K	144.87 ± 2.9
467.6 K	145.03 ± 2.9
470.3 K	145.2 ± 2.9
473 K	145.33 ± 2.9
475.6 K	145.69 ± 2.9
478.3 K	146.04 ± 2.9
480.9 K	146.21 ± 2.9
483.5 K	146.26 ± 2.9
486.2 K	146.62 ± 2.9
488.8 K	146.64 ± 2.9
491.4 K	146.9 ± 2.9
494 K	147.09 ± 2.9
496.6 K	147.19 ± 2.9
499.2 K	147.37 ± 3
501.8 K	147.62 ± 3
504.4 K	147.87 ± 3
506.9 K	148.03 ± 3
509.5 K	148.01 ± 3
512.1 K	148.31 ± 3
514.7 K	148.51 ± 3
517.2 K	148.78 ± 3
519.8 K	148.72 ± 3
522.4 K	148.99 ± 3
524.9 K	149.11 ± 3
527.5 K	149.23 ± 3
530 K	149.4 ± 3
532.6 K	149.69 ± 3
535.1 K	149.98 ± 3
537.6 K	150.02 ± 3
540.2 K	150.02 ± 3
542.7 K	150.2 ± 3
545.2 K	150.41 ± 3
547.8 K	150.44 ± 3
550.3 K	150.65 ± 3
552.8 K	150.77 ± 3
555.4 K	150.97 ± 3
557.9 K	151.21 ± 3
560.4 K	151.31 ± 3
562.9 K	151.22 ± 3
565.4 K	151.35 ± 3
567.9 K	151.77 ± 3
570.4 K	152.1 ± 3
572.9 K	151.97 ± 3
575.4 K	152.01 ± 3
577.9 K	152.43 ± 3
580.4 K	152.52 ± 3
582.9 K	152.55 ± 3
585.4 K	152.99 ± 3.1
587.9 K	153.06 ± 3.1
590.4 K	153.4 ± 3.1
592.8 K	153.37 ± 3.1
595.3 K	153.54 ± 3.1
597.8 K	153.59 ± 3.1
600.3 K	153.68 ± 3.1
602.8 K	153.91 ± 3.1
605.3 K	153.92 ± 3.1
607.7 K	153.98 ± 3.1
610.2 K	154.22 ± 3.1
612.7 K	154.27 ± 3.1
615.2 K	154.37 ± 3.1
617.6 K	154.5 ± 3.1
620.1 K	154.88 ± 3.1
622.6 K	154.95 ± 3.1
625.1 K	154.9 ± 3.1
627.5 K	155.19 ± 3.1
630 K	155.25 ± 3.1
632.5 K	155.38 ± 3.1
634.9 K	155.28 ± 3.1
637.4 K	155.32 ± 3.1
639.9 K	155.57 ± 3.1
642.3 K	155.79 ± 3.1
644.8 K	156.13 ± 3.1
647.3 K	155.71 ± 3.1
649.7 K	156.15 ± 3.1
652.2 K	156.38 ± 3.1
654.7 K	156.1 ± 3.1
657.1 K	156.18 ± 3.1
659.6 K	156.74 ± 3.1
662.1 K	156.82 ± 3.1
664.5 K	156.91 ± 3.1
667 K	157.05 ± 3.1
669.5 K	157.26 ± 3.1
671.9 K	157.26 ± 3.1
674.4 K	157.34 ± 3.1
676.9 K	157.51 ± 3.1
679.3 K	157.82 ± 3.2
681.8 K	157.78 ± 3.2
684.3 K	157.7 ± 3.1
686.7 K	157.84 ± 3.2
689.2 K	158.11 ± 3.2
691.6 K	158.21 ± 3.2
694.1 K	158.28 ± 3.2
696.6 K	158.3 ± 3.2
699 K	158.66 ± 3.2
701.5 K	158.32 ± 3.2
704 K	158.88 ± 3.2
706.4 K	158.86 ± 3.2
708.9 K	158.73 ± 3.2
711.3 K	159.06 ± 3.2
713.8 K	159.12 ± 3.2
716.3 K	159.23 ± 3.2
718.7 K	159.5 ± 3.2
721.2 K	159.17 ± 3.2
723.7 K	159.42 ± 3.2
726.1 K	159.52 ± 3.2
728.6 K	159.81 ± 3.2
731 K	159.67 ± 3.2
733.5 K	159.82 ± 3.2
736 K	160.19 ± 3.2
738.4 K	160.21 ± 3.2
740.9 K	159.84 ± 3.2
743.4 K	160.74 ± 3.2
745.8 K	160.23 ± 3.2
748.3 K	160.71 ± 3.2
750.8 K	160.51 ± 3.2
753.2 K	160.71 ± 3.2
755.7 K	160.47 ± 3.2
758.1 K	161.09 ± 3.2
760.6 K	160.99 ± 3.2
763.1 K	161.08 ± 3.2
765.5 K	161.21 ± 3.2
768 K	161.19 ± 3.2
770.5 K	161.33 ± 3.2
773 K	161.68 ± 3.2
775.4 K	161.44 ± 3.2
777.9 K	161.42 ± 3.2
780.4 K	161.69 ± 3.2
782.8 K	161.76 ± 3.2
785.3 K	161.68 ± 3.2
787.8 K	161.79 ± 3.2
790.2 K	161.81 ± 3.2
792.7 K	161.94 ± 3.2
795.2 K	162.55 ± 3.2
797.7 K	162.37 ± 3.2
800.1 K	162.27 ± 3.2
802.6 K	162.36 ± 3.2
805.1 K	162.55 ± 3.2
807.5 K	162.68 ± 3.2
810 K	162.67 ± 3.2
812.5 K	162.66 ± 3.2
815 K	162.95 ± 3.3
817.4 K	162.84 ± 3.3
819.9 K	162.94 ± 3.3
822.4 K	163.1 ± 3.3
824.9 K	163.41 ± 3.3
827.3 K	163.19 ± 3.3
829.8 K	163.53 ± 3.3
832.3 K	163.61 ± 3.3
834.8 K	163.59 ± 3.3
837.3 K	163.47 ± 3.3
839.8 K	163.45 ± 3.3
842.2 K	163.53 ± 3.3
844.7 K	163.85 ± 3.3
847.2 K	163.88 ± 3.3
849.6 K	163.86 ± 3.3
852.1 K	163.85 ± 3.3
854.6 K	163.88 ± 3.3
857.1 K	163.9 ± 3.3
859.6 K	164.11 ± 3.3
862.1 K	164.25 ± 3.3
864.6 K	164.33 ± 3.3
867 K	164.11 ± 3.3
869.5 K	164.63 ± 3.3
872 K	164.68 ± 3.3
874.5 K	164.55 ± 3.3
877 K	164.67 ± 3.3
879.5 K	164.73 ± 3.3
881.9 K	165.01 ± 3.3
884.4 K	164.63 ± 3.3
886.9 K	165.15 ± 3.3
889.4 K	164.71 ± 3.3
891.9 K	164.79 ± 3.3
894.4 K	164.9 ± 3.3
896.9 K	165 ± 3.3
899.4 K	165.27 ± 3.3
901.8 K	165.61 ± 3.3
904.3 K	165.53 ± 3.3
906.8 K	165.9 ± 3.3
909.3 K	165.68 ± 3.3
911.8 K	166.05 ± 3.3
914.3 K	165.94 ± 3.3
916.8 K	165.71 ± 3.3
919.3 K	165.93 ± 3.3
921.7 K	165.89 ± 3.3
924.2 K	166.2 ± 3.3
926.7 K	166.37 ± 3.3
929.2 K	166.53 ± 3.3
931.7 K	166.66 ± 3.3
934.2 K	166.07 ± 3.3
936.7 K	166.68 ± 3.3
939.2 K	167.32 ± 3.4
941.7 K	167.41 ± 3.4
944.2 K	167.52 ± 3.4
946.7 K	167.43 ± 3.4
949.2 K	167.53 ± 3.4
951.7 K	167.51 ± 3.4
